In patent US7160888B2, “[1,8]naphthyridin-2-ones and related compounds for the treatment of schizophrenia” (Warner Lambert Company LLC, priority 2003, dated 2007):

Molecular target: D2 receptor (Homo sapiens, UniProt P14416)
Test: [3H]Thymidine uptake assay for D2 intrinsic activity
Format: cell-based
Settings: test compound 1 μM, 1 μM Quinpirole = 100% intrinsic activity

D2 receptor, sequence (P14416 whole entry): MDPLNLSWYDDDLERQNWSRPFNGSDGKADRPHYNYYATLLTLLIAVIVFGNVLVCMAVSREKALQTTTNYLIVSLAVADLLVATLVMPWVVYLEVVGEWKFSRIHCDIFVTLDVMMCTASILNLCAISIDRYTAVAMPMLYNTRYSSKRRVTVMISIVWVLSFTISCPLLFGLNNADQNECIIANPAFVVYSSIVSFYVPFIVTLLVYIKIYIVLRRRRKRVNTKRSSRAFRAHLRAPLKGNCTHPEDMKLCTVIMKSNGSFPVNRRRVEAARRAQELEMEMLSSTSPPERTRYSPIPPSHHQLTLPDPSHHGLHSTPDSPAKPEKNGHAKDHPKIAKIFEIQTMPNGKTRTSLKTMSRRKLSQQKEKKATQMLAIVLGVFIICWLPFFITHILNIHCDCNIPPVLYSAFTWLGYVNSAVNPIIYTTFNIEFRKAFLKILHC

SMILES | Emax at 1 µM (Table 2) [%] | Emax at 1 µM (Table 1) [%]
COc1ccc2c(N3CCN(CCCCOc4ccc5c(n4)NC(=O)CC5)CC3)cccc2n1 [Example A43′, 7-{4-[4-(2-Methoxy-quinolin-5-yl)-piperazin-1-yl]-butoxy}-3,4-dihydro-1H-[1,8]naphthyridin-2-one] | 32 | 
Cc1cccc(N2CCN(CCCCOc3ccc4c(n3)NC(=O)CC4)CC2)n1 [Example A44, 7-{4-[4-(6-Methyl-pyridin-2-yl)-piperazin-1-yl]-butoxy}-3,4-dihydro-1H-[1,8]naphthyridin-2-one] |  | 51
O=C1CCc2ccc(OCCCCN3CCN(c4cccc5nccnc45)CC3)nc2N1 [Example A44′, 7-[4-(4-Quinoxalin-5-yl-piperazin-1-yl)-butoxy]-3,4-dihydro-1H-[1,8]naphthyridin-2-one] | 29 | 
CCc1cccc(N2CCN(CCCCOc3ccc4c(n3)NC(=O)CC4)CC2)n1 [Example A45, 7-{4-[4-(6-Ethyl-pyridin-2-yl)-piperazin-1-yl]-butoxy}-3,4-dihydro-1H-[1,8]naphthyridin-2-one] |  | 34
O=C1CCc2ccc(OCCCCN3CCN(c4cccc(C5CC5)n4)CC3)nc2N1 [Example A46, 7-{4-[4-(6-Cyclopropyl-pyridin-2-yl)-piperazin-1-yl]-butoxy}-3,4-dihydro-1H-[1,8]naphthyridin-2-one] |  | 41
O=C1CCc2ccc(OCCCCN3CCN(c4cccc5ccc(=O)[nH]c45)CC3)nc2N1 [Example A47′, 7-{4-[4-(2-Oxo-1,2-dihydro-quinolin-8-yl)-piperazin-1-yl]-butoxy}-3,4-dihydro-1H-[1,8]naphthyridin-2-one] | 32 | 
O=C1CCc2ccc(OCCCCN3CCN(c4cccc5ccccc45)CC3)nc2N1 [Example A48, 7-[4-(4-Naphthalen-1-yl-piperazin-1-yl)-butoxy]-3,4-dihydro-1H-[1,8]naphthyridin-2-one] |  | 34
O=C1CCc2ccc(OCCCCN3CCN(c4cccc5c4NC(=O)CC5)CC3)nc2N1 [Example A48′, 7-{4-[4-(2-Oxo-1,2,3,4-tetrahydro-quinolin-8-yl)-piperazin-1-yl]-butoxy}-3,4-dihydro-1H-[1,8]naphthyridin-2-one] | 34 | 
CN1C(=O)CCc2cccc(N3CCN(CCCCOc4ccc5c(n4)NC(=O)CC5)CC3)c21 [Example A49′, 7-{4-[4-(1-Methyl-2-oxo-1,2,3,4-tetrahydro-quinolin-8-yl)-piperazin-1-yl]-butoxy}-3,4-dihydro-1H-[1,8]naphthyridin-2-one] | 38 | 
O=C1CCc2ccc(OCCCCN3CCN(c4cc(F)cc5c4CCCC5)CC3)nc2N1 [Example A50, 7-{4-[4-(3-Fluoro-5,6,7,8-tetrahydro-naphthalen-1-yl)-piperazin-1-yl]-butoxy}-3,4-dihydro-1H-[1,8]naphthyridin-2-one] |  | 14
O=C1CCc2ccc(OCCCCN3CCN(c4cccc5c4C(=O)CCC5)CC3)nc2N1 [Example A51, 7-{4-[4-(8-Oxo-5,6,7,8-tetrahydro-naphthalen-1-yl)-piperazin-1-yl]-butoxy}-3,4-dihydro-1H-[1,8]naphthyridin-2-one] |  | 20
CC1(C)CCc2cccc(N3CCN(CCCCOc4ccc5c(n4)NC(=O)CC5)CC3)c2C1=O [Example A52, 7-{4-[4-(7,7-Dimethyl-8-oxo-5,6,7,8-tetrahydro-naphthalen-1-yl)-piperazin-1-yl]-butoxy}-3,4-dihydro-1H-[1,8]naphthyridin-2-one] |  | 32
O=C1CCc2cccc(N3CCN(CCCCOc4ccc5c(n4)NC(=O)CC5)CC3)c2C1 [Example A56, 7-{4-[4-(7-Oxo-5,6,7,8-tetrahydro-naphthalen-1-yl)-piperazin-1-yl]-butoxy}-3,4-dihydro-1H-[1,8]naphthyridin-2-one] |  | 29
O=C1CCc2ccc(OCCCCN3CCN(c4cccc5c4CCCC5(F)F)CC3)nc2N1 [Example A59, 7-{4-[4-(5,5-Difluoro-5,6,7,8-tetrahydro-naphthalen-1-yl)-piperazin-1-yl]-butoxy}-3,4-dihydro-1H-[1,8]naphthyridin-2-one] |  | 30
O=C1CCc2ccc(OCCCCN3CCN(c4cccc5c4CC(F)(F)C5)CC3)nc2N1 [Example A62, 7-{4-[4-(2,2-Difluoro-indan-4-yl)-piperazin-1-yl]-butoxy}-3,4-dihydro-1H-[1,8]naphthyridin-2-one] |  | 27
O=C1CCc2ccc(OCCCCN3CCN(c4cccc5c4CCCCC5)CC3)nc2N1 [Example A63, 7-{4-[4-(6,7,8,9-Tetrahydro-5H-benzocyclohepten-1-yl)-piperazin-1-yl]-butoxy}-3,4-dihydro-1H-[1,8]naphthyridin-2-one] |  | 4
O=C1CCc2ccc(OCCCCN3CCC(c4cccc5ccccc45)CC3)nc2N1 [Example A64, 7-[4-(4-Naphthalen-1-yl-piperidin-1-yl)-butoxy]-3,4-dihydro-1H-[1,8]naphthyridin-2-one] |  | 36
O=C1CCc2ccc(OCCCCN3CCN(c4cccc5cccc(F)c45)CC3)nc2N1 [Example A66, 7-{4-[4-(8-Fluoro-naphthalen-1-yl)-piperazin-1-yl]-butoxy}-3,4-dihydro-1H-[1,8]naphthyridin-2-one] |  | 49
COc1ccc2cccc(N3CCN(CCCCOc4ccc5c(n4)NC(=O)CC5)CC3)c2c1 [Example A73, 7-{4-[4-(7-Methoxy-naphthalen-1-yl)-piperazin-1-yl]-butoxy}-3,4-dihydro-1H-[1,8]naphthyridin-2-one] |  | 23
O=C1CCc2ccc(OCCCCN3CCN(c4cccc5ccc(Cl)cc45)CC3)nc2N1 [Example A74, 7-{4-[4-(7-Chloro-naphthalen-1-yl)-piperazin-1-yl]-butoxy}-3,4-dihydro-1H-[1,8]naphthyridin-2-one] |  | 37
O=C1CCc2ccc(OCCCCN3CCN(c4cccc5c(Cl)cccc45)CC3)nc2N1 [Example A75, 7-{4-[4-(5-Chloro-naphthalen-1-yl)-piperazin-1-yl]-butoxy}-3,4-dihydro-1H-[1,8]naphthyridin-2-one] |  | 36
O=C1CCc2ccc(OCCCCN3CCN(c4cccc5cc(Cl)ccc45)CC3)nc2N1 [Example A76, 7-{4-[4-(6-Chloro-naphthalen-1-yl)-piperazin-1-yl]-butoxy}-3,4-dihydro-1H-[1,8]naphthyridin-2-one] |  | 16
O=C1CCc2ccc(OCCCCN3CCN(c4cccc5cccc(Cl)c45)CC3)nc2N1 [Example A77, 7-{4-[4-(8-Chloro-naphthalen-1-yl)-piperazin-1-yl]-butoxy}-3,4-dihydro-1H-[1,8]naphthyridin-2-one] |  | 36
CC(=O)c1ccc2cccc(N3CCN(CCCCOc4ccc5c(n4)NC(=O)CC5)CC3)c2c1 [Example A78, 7-{4-[4-(7-Acetyl-naphthalen-1-yl)-piperazin-1-yl]-butoxy}-3,4-dihydro-1H-[1,8]naphthyridin-2-one] |  | 24
CC(=O)c1ccc2c(N3CCN(CCCCOc4ccc5c(n4)NC(=O)CC5)CC3)cccc2c1 [Example A79, 7-{4-[4-(6-Acetyl-napthalen-1-yl)-piperazin-1-yl]-butoxy}-3,4-dihydro-1H-[1,8]naphthyridin-2-one] |  | 24
CC(=O)c1cccc2c(N3CCN(CCCCOc4ccc5c(n4)NC(=O)CC5)CC3)cccc12 [Example A80, 7-{4-[4-(5-Acetyl-naphthalen-1-yl)-piperazin-1-yl]-butoxy}-3,4-dihydro-1H-[1,8]naphthyridin-2-one] |  | 30
